Source: patent US20200325156A1, “HETEROARYL AMIDE COMPOUNDS, PREPARATION METHOD THEREFOR, PHARMACEUTICAL COMPOSITIONS THEREOF, AND APPLICATIONS THEREOF” (Rui Jin Hospital Affiliated to Shanghai Jiao Tong …, priority 2017, published 2020)

Columns and labels:
Type in all cases: cell-based
[1] = test system: Human lung cancer cells A549; assay: MTS cell growth inhibition, A549
Procedure: (§1) 1) Medium: DMEM (Dulbecco's modified eagle medium) or RPMI1640 (containing 10% fetal bovine serum, 100 μg/mL ampicillin, 100 μg/mL streptomycin).
(§2) 2) Reagent: MTS reaction solution (containing 2 mg/mL of MTS (3-(4,5-dimethylthiazol-2-yl)-5-(3-carboxymethoxyphenyl)-2-(4-sulfophenyl)-2H-tetrazolium, inner salt); 100 μg/mL PES ([…])).
(§3) Human promyelocytic leukemia cells HL-60 (2×10^4 cells/well) cultured in vitro were incubated into a 96-well culture plate, the volume of cell-culture medium was 90 μL, and then 10 μL of the compound at each gradient concentration was added (the highest concentration was 10 μM, which was diluted stepwise by ⅓, and 8 concentration points were set in total; the system contained 0.1% DMSO (dimethyl sulfoxide)). The cell plate with uniformly mixed compound was cultured in a cell culture incubator (37° C.; 5% CO2) for 48 h, then 20 μμL of MTS reaction solution was added, uniformly mixed and incubated in the cell culture incubator (37° C.; 5% CO2) for 1-4 hr; OD values at 490 nm were measured by a microplate reader (VARIOSKAN FLASH, Thermo). Three parallels were set in each group of experiments, with 0.1% (a final concentration) DMSO as a negative control, and a medium without cells and compounds as a blank control. The cell growth inhibition rate was calculated by the following formula:
(§4) Cell growth inhibition rate%=1−(ODexperimental group−ODblank group)/(ODnegative group−ODblank group)×100%
(§5) 4) IC50 calculation: The semi-inhibitory concentration of the compound acting on cell was calculated using GradPad Prism 5 software according to the measured cell growth inhibition rate.
(§6) Human lung cancer cells A549, human gastric cancer cells BGC-823, human liver cancer cells HepG-2 and human breast cancer cells MCF-7, human osteosarcoma cells U2OS, human prostate cancer cells LNCAP cultured in vitro were added in a 96-well culture plate at 1,000-10,000 cells/well, incubated until adherence, and then the compound was added. As to other procedures, please refer to the method (1) above.

[2] = test system: human gastric cancer cells BGC-823; assay: MTS cell growth inhibition, BGC-823; conditions: compound concentration 10 μM, 48 h, read-out: Inhibition rate against BGC-823 at 10 μM (%)
Procedure: as §1, §2, §3, §4, §5, §6

[3] = test system: human liver cancer cells HepG-2; assay: MTS cell growth inhibition, HepG-2; conditions: HepG2, compound concentration 10 μM, 48 h, read-out: Inhibition rate against HepG-2 at 10 μM (%)
Procedure: as §1, §2, §3, §4, §5, §6

[4] = test system: human breast cancer cells MCF-7; assay: MTS cell growth inhibition, MCF-7; conditions: MCF7, compound concentration 10 μM, 48 h, read-out: Inhibition rate against MCF-7 at 10 μM (%)
Procedure: as §1, §2, §3, §4, §5, §6

[5] = test system: Human promyelocytic leukemia cells HL-60; assay: MTS cell growth inhibition, HL-60; conditions: Homo sapiens, HL-60; compound concentration 10 μM; 48 h; MTS; read-out: Inhibition rate against HL-60 at 10 μM (%)
Procedure: as §1, §2, §3, §4, §5

[6] = test system: human osteosarcoma cells U2OS; assay: MTS cell growth inhibition, U2OS; conditions: Homo sapiens, U2OS; compound concentration 10 μM; 48 h; MTS; read-out: Inhibition rate against U2OS at 10 μM (%)
Procedure: as §1, §2, §3, §4, §5, §6

[7] = test system: human prostate cancer cells LNCAP; assay: MTS cell growth inhibition, LNCAP; conditions: Homo sapiens, LNCaP; compound concentration 10 μM; 48 h; MTS; read-out: Inhibition rate against LNCAP at 10 μM (%)
Procedure: as §1, §2, §3, §4, §5, §6

[8] = test system: lung cancer cell line NCI-1975; assay: Growth inhibitory activity, NCI-1975; conditions: growth inhibition; read-out: Lung cancer cells IC50 NCI-1975
[9] = test system: lung cancer cell line HCC827; assay: Growth inhibitory activity, HCC827; conditions: Homo sapiens, growth inhibition, read-out: Lung cancer cells IC50 HCC827
[10] = test system: human embryo lung cell line WI-38; assay: Growth inhibitory activity, WI-38; conditions: growth inhibition, normal cells
[11] = test system: human embryo lung cell line HFL-1; assay: Growth inhibitory activity, HFL-1; conditions: HFL1, growth inhibition, normal cells
[12] = test system: leukemia cell line SHI-1; assay: Growth inhibitory activity, SHI-1; conditions: growth inhibition; read-out: Leukemia cells IC50 SHI-1
[13] = test system: leukemia cell line THP-1; assay: Growth inhibitory activity, THP-1; conditions: Homo sapiens, growth inhibition, read-out: Leukemia cells IC50 THP-1
[14] = test system: leukemia cell line NB-4; assay: Growth inhibitory activity, NB4; conditions: growth inhibition; read-out: Leukemia cells IC50 NB4
[15] = test system: tumor cells (NCI-1975, HCC827, A549, SHI-1, THP-1, NB-4); assay: Growth inhibition of tumor cells (summary over cell lines); conditions: range over lung cancer and leukemia cell lines
Procedure: as §1, §2
as §3, with “Three parallels were set in each group of experiments, with 0.1% (a final concentration) DMSO as a negative control, and a medium without cells and compounds as a blank control.” left out, “formula: […]” for “formula:”
4) IC50 calculation: The semi-inhibitory concentration of the compound acting on cell was calculated using GradPad Prism 5 software according to the measured cell growth inhibition rate. […]

[16] = test system: normal human embryo lung cells (WI-38 and HFL-1); assay: Growth of normal human embryo lung cells (summary)

- IC50 ([1]; growth inhibition): 30 nM
- IC50 [9]: 8 nM
- IC50 [12]: 221 nM
- IC50 [13]: 2460 nM
- IC50 [14]: 280 nM
SMILES: CC(C)Oc1ccc(NC(=O)c2cc3scnc3[nH]2)cc1 [Compound I-2]
- inhibition at 10 µM ([1]; compound concentration 10 μM, 48 h, MTS, read-out: Inhibition rate against A549 at 10 μM (%)): 81.9%
- inhibition at 10 µM [2]: 61.7%
- inhibition at 10 µM [3]: 60.1%
- inhibition at 10 µM [4]: 23.1%
- inhibition at 10 µM [5]: < 0%
- inhibition at 10 µM [6]: 19.4%
- inhibition at 10 µM [7]: 22.2%
- IC50 [8]: 57 nM
- IC50 [10]: 5620 nM
- IC50 [11]: 8590 nM
- IC50 [15]: 8 to 280 nM
- IC50 [16]: > 5000 nM
